Test results taken from US5556744A, “Methods and compositions for diagnosing and treating certain HIV infected patients” (The Trustees of the University of Pennsylvania, priority 1994, dated 1996).

Test system: maternal sera (antibodies)
Assay: ELISA peptide-binding of maternal sera (Example 6)
Parameters: species or system human
Settings: for Number of Non-Transmitters which bound to peptide / Percent of Non-Transmitters which bound to peptide: N = 12; for Number of Transmitters which bound to peptide / Percent of Transmitters which bound to peptide: N = 4
Excerpt: A total of 86 maternal sera samples obtained from patients of the Hospital of the University of Pennsylvania during the third trimester of pregnancy were used in this study 58 (67%) were non-transmitters and 28 (33%) were transmitters. This is approximately consistent with the national average (i.e. a rate of transmission between 25-30%). Transmission status was based upon serological or molecular diagnosis of children (at an age of greater than 15 months) born to these mothers. Because of the constraints on the volume of serum available for many of these samples, not all sera were analyzed with all the peptides. However, each sera sample was run with at least 40 peptides.
These peptides are of an average length of 16 amino acids and covered the entire external as well as the transmembrane glycoprotein of HIV-1. Peptide binding was analyzed by ELISA essentially as described in Example 3.
The results of one study, using some of the peptides identified above among others, is provided in Table 12, which illustrates the number and percent of non-transmitters which bound to the tested peptide. The percentage designation refers to the percentage of sera samples which bound to a particular peptide. A value of greater than 0% means that at least one of the samples bound to the particular peptides.

41-11: gp41 peptide, amino acids 541-564, HIV strain MN, SEQ ID NO: 157 (QARQLLSGIVQQQNNLLRAIEAQQ) [Peptide 41-11]
Number of Non-Transmitters which bound to peptide: 0
Percent of Non-Transmitters which bound to peptide: 0%
Number of Transmitters which bound to peptide: 0
Percent of Transmitters which bound to peptide: 0%

41-13: gp41 peptide, amino acids 616-632, HIV strain BRU, SEQ ID NO: 153 (NASWSNKSLEQIWNNMT) [Peptide 41-13]
Number of Non-Transmitters which bound to peptide: 0
Percent of Non-Transmitters which bound to peptide: 0%
Number of Transmitters which bound to peptide: 0
Percent of Transmitters which bound to peptide: 0%

41-21: gp41 peptide, amino acids 661-683, HIV strain IIIB, SEQ ID NO: 152 (LELDKWASLWNWFNITNWLWYIK) [Peptide 41-21]
Number of Non-Transmitters which bound to peptide: 0
Percent of Non-Transmitters which bound to peptide: 0%
Number of Transmitters which bound to peptide: 0
Percent of Transmitters which bound to peptide: 0%

41-22: gp41 peptide, amino acids 702-720, HIV strain BH10, SEQ ID NO: 155 [Peptide 41-22]
Number of Non-Transmitters which bound to peptide: 0
Percent of Non-Transmitters which bound to peptide: 0%
Number of Transmitters which bound to peptide: 0
Percent of Transmitters which bound to peptide: 0%

105: gp120 peptide, amino acids 286-300, SEQ ID NO:112 (VQLNTSVEINCTRPN) [Peptide 105]
Number of Non-Transmitters which bound to peptide: 0
Percent of Non-Transmitters which bound to peptide: 0%
Number of Transmitters which bound to peptide: 0
Percent of Transmitters which bound to peptide: 0%

124: gp41 peptide, amino acids 646-660, SEQ ID NO:123 (IEESQNQQEKNEQEL) [Peptide 124]
Number of Non-Transmitters which bound to peptide: 0
Percent of Non-Transmitters which bound to peptide: 0%
Number of Transmitters which bound to peptide: 0
Percent of Transmitters which bound to peptide: 0%

5099: gp41 peptide, amino acids 512-543, HIV strain IIIB, SEQ ID NO: 162 (AYGIGALFLGFLGAAGSTMGAASMTLTVQARC) [Peptide 5099]
Number of Non-Transmitters which bound to peptide: 1
Percent of Non-Transmitters which bound to peptide: 83%
Number of Transmitters which bound to peptide: 0
Percent of Transmitters which bound to peptide: 0%

A405: gp120 peptide, amino acids 405-423, HIV strain Z3, SEQ ID NO: 130 (TGNITLPCRIKQVVRTWQG) [Peptide A405]
Number of Non-Transmitters which bound to peptide: 1
Percent of Non-Transmitters which bound to peptide: 8.3%
Number of Transmitters which bound to peptide: 0
Percent of Transmitters which bound to peptide: 0%

A487: gp120 peptide, amino acids 481-503, HIV strain IIIB, SEQ ID NO: 132 (ELYKYKVVKIEPLGVAPTKAKRR) [Peptide A487]
Number of Non-Transmitters which bound to peptide: 1
Percent of Non-Transmitters which bound to peptide: 8.3%
Number of Transmitters which bound to peptide: 0
Percent of Transmitters which bound to peptide: 0%

A524: gp41 peptide, amino acids 523-530, HIV strain MN, SEQ ID NO: 163 (FLGFLGAAGST) [Peptide A524]
Number of Non-Transmitters which bound to peptide: 0
Percent of Non-Transmitters which bound to peptide: 0%
Number of Transmitters which bound to peptide: 0
Percent of Transmitters which bound to peptide: 0%

A581: gp41 peptide, amino acids 576-592, SEQ ID NO:120 (LQARILAVERYLKDQQL) [Peptide A581]
Number of Non-Transmitters which bound to peptide: 2
Percent of Non-Transmitters which bound to peptide: 16.7%
Number of Transmitters which bound to peptide: 0
Percent of Transmitters which bound to peptide: 0%

A604 (IIIB): Peptide A604 (IIIB), Sequence ID No. 193 (CTTAVPWNASWSNKS)
Number of Non-Transmitters which bound to peptide: 2
Percent of Non-Transmitters which bound to peptide: 16.7%
Number of Transmitters which bound to peptide: 0
Percent of Transmitters which bound to peptide: 0%

A620: gp41 peptide, amino acids 615-627, HIV strain IIIB, SEQ ID NO: 172 (SNKSLEQIWNNMT) [Peptide A620]
Number of Non-Transmitters which bound to peptide: 1
Percent of Non-Transmitters which bound to peptide: 8.3%
Number of Transmitters which bound to peptide: 0
Percent of Transmitters which bound to peptide: 0%

A733: gp41 peptide, amino acids 728-745, HIV strain IIIB, SEQ ID NO: 174 (DRPEGIEEEGGERDRDRS) [Peptide A733]
Number of Non-Transmitters which bound to peptide: 1
Percent of Non-Transmitters which bound to peptide: 8.3%
Number of Transmitters which bound to peptide: 0
Percent of Transmitters which bound to peptide: 0%

A824: gp41 peptide, amino acids 824-831, HIV strain IIIB, SEQ ID NO: 175 (EGTDRVIE) [Peptide A824]
Number of Non-Transmitters which bound to peptide: 0
Percent of Non-Transmitters which bound to peptide: 0%
Number of Transmitters which bound to peptide: 0
Percent of Transmitters which bound to peptide: 0%

A6938: gp120 peptide, amino acids 200-217, HIV strain IIIB, SEQ ID NO: 135 (VITQACPKVSFEPIPIHY) [Peptide A6938]
Number of Non-Transmitters which bound to peptide: 0
Percent of Non-Transmitters which bound to peptide: 0%
Number of Transmitters which bound to peptide: 0
Percent of Transmitters which bound to peptide: 0%

A6939: gp120 peptide, amino acids 210-227, SEQ ID NO:108 (FEPIPIHYCAPAGFAILK) [Peptide A6939]
Number of Non-Transmitters which bound to peptide: 0
Percent of Non-Transmitters which bound to peptide: 0%
Number of Transmitters which bound to peptide: 0
Percent of Transmitters which bound to peptide: 0%

BS-1: gp120 peptide, amino acids 319-329, SEQ ID NO:114 (TIGKIGNMRQA)
Number of Non-Transmitters which bound to peptide: 0
Percent of Non-Transmitters which bound to peptide: 0%
Number of Transmitters which bound to peptide: 0
Percent of Transmitters which bound to peptide: 0%

BS-2: gp41 peptide, amino acids 625-634, HIV strain IIIB, SEQ ID NO: 176 (NMTWMEWDRE)
Number of Non-Transmitters which bound to peptide: 0
Percent of Non-Transmitters which bound to peptide: 0%
Number of Transmitters which bound to peptide: 0
Percent of Transmitters which bound to peptide: 0%

C21E: gp120 peptide, amino acids 252-272, HIV strain MN, SEQ ID NO: 147 (CTHGIRPVVSTQLLLNGSLAE) [Peptide C21E]
Number of Non-Transmitters which bound to peptide: 0
Percent of Non-Transmitters which bound to peptide: 0%
Number of Transmitters which bound to peptide: 0
Percent of Transmitters which bound to peptide: 0%

CNNKTFNGTGFCTNVSTVQ (CNNKTFNGTGPCTNVSTVQ) [Peptide C19Q]
Number of Non-Transmitters which bound to peptide: 4
Number of Transmitters which bound to peptide: 0
Percent of Transmitters which bound to peptide: 0%

DC419 (IIIB): Peptide DC419 (IIIB), Sequence ID No. 191 (TGDIITLPCRIKQIINRWQV)
Number of Non-Transmitters which bound to peptide: 0
Percent of Non-Transmitters which bound to peptide: 0%
Number of Transmitters which bound to peptide: 0
Percent of Transmitters which bound to peptide: 0%

KQIINMWQEVGKAMYA/CTRPNNNTRKSIRIQRGPG (KQIINMWQEVGKAMYACTRPNNNTRKSIRIQRGPG) [1/SP10IIIB]
Correlation of peptide binding with non-transmitters (in words) (Example 6): selectively correlate with non-transmitters
Fold binding, non-transmitters vs transmitters (Example 6): at least two fold greater
Number of Non-Transmitters which bound to peptide: 8
Percent of Non-Transmitters which bound to peptide: 66.7%
Percent of Non-Transmitters which bound to peptide (listed as 1/SP10 IIIB): greater than 50%
Number of Transmitters which bound to peptide: 1
Percent of Transmitters which bound to peptide: 25%

RG-1: gp41 peptide, amino acids 510-516, HIV strain IIIB, SEQ ID NO: 177 (KRAVGIG)
Number of Non-Transmitters which bound to peptide: 3
Percent of Non-Transmitters which bound to peptide: 25%
Number of Transmitters which bound to peptide: 1
Percent of Transmitters which bound to peptide: 25%

RG-2: gp41 peptide, amino acids 678-697, HIV strain IIIB, SEQ ID NO: 178 (WLWYIKLFIMIVGGLVGLRI)
Number of Non-Transmitters which bound to peptide: 0
Percent of Non-Transmitters which bound to peptide: 0%
Number of Transmitters which bound to peptide: 0
Percent of Transmitters which bound to peptide: 0%

S19C: Peptide S19C, Sequence ID No. 196; described in the January 1991 Catalog (STQLLLNGSLAEEEVVIR)
Number of Non-Transmitters which bound to peptide: 0
Percent of Non-Transmitters which bound to peptide: 0%
Number of Transmitters which bound to peptide: 0
Percent of Transmitters which bound to peptide: 0%

T19V: Peptide T19V, Sequence ID No. 195; described in the January 1991 Catalog (TGPCTNVSTVQCTHGIRPV)
Number of Non-Transmitters which bound to peptide: 3
Percent of Non-Transmitters which bound to peptide: 25%
Number of Transmitters which bound to peptide: 0
Percent of Transmitters which bound to peptide: 0%

VVQREKRAVGIG [Peptide 510]
Number of Non-Transmitters which bound to peptide: 4
Number of Transmitters which bound to peptide: 0
Percent of Transmitters which bound to peptide: 0%

WSK-1: gp120 peptide, amino acids 378-394, SEQ ID NO:115 (GGEFFYCNSTQLFNSTW)
Number of Non-Transmitters which bound to peptide: 0
Percent of Non-Transmitters which bound to peptide: 0%
Number of Transmitters which bound to peptide: 0
Percent of Transmitters which bound to peptide: 0%
